# Measurements: ChEMBL document CHEMBL3046228, “Synthesis of new bicyclo[4.1.0]heptane-2,4-dione derivatives and their herbicidal activity” (J Pestic Sci, 2007)
# Key:
# Zea mays = assay: Phytotoxicity against Zea mays (maize) assessed as induction of plant damage applied through foliar spraying; format: organism-based; conditions: in vivo, other
# Setaria faberi = assay: Herbicidal activity against Setaria faberi (Giant Foxtail) assessed as induction of plant damage applied through foliar spraying; format: functional
# Amaranthus retroflexus = assay: Herbicidal activity against Amaranthus retroflexus assessed as induction of plant damage applied through foliar spraying; format: functional
# Digitaria sanguinalis = assay: Herbicidal activity against Digitaria sanguinalis (hairy crabgrass) assessed as induction of plant damage applied through foliar spraying; format: functional
# Abutilon theophrasti = assay: Herbicidal activity against Abutilon theophrasti (velvetleaf) assessed as induction of plant damage applied through foliar spraying; format: functional
smiles,measurement,setting,value
CSc1ccc(C(=O)C2C(=O)C[C@H]3C[C@H]3C2=O)c([N+](=O)[O-])c1 (relative stereo),ED0,Zea mays,125 gAi/ha
same,ED80,Setaria faberi,250 gAi/ha
same,ED80,Amaranthus retroflexus,31 gAi/ha
same,ED80,Digitaria sanguinalis,63 gAi/ha
same,ED80,Abutilon theophrasti,16 gAi/ha
CC1CC(=O)C(C(=O)c2ccc(Cl)cc2[N+](=O)[O-])C(=O)C1 (stereo not given),ED0,Zea mays,63 gAi/ha
same,ED80,Setaria faberi,16 gAi/ha
same,ED80,Amaranthus retroflexus,125 gAi/ha
same,ED80,Digitaria sanguinalis,31 gAi/ha
same,ED80,Abutilon theophrasti,125 gAi/ha
O=C1CCCC(=O)C1C(=O)c1ccc(Cl)cc1[N+](=O)[O-],ED0,Zea mays,500 gAi/ha
same,ED80,Setaria faberi,500 gAi/ha
same,ED80,Amaranthus retroflexus,125 gAi/ha
same,ED80,Digitaria sanguinalis,250 gAi/ha
same,ED80,Abutilon theophrasti,31 gAi/ha
CS(=O)(=O)c1ccc(C(=O)C2C(=O)C[C@H]3C[C@H]3C2=O)c([N+](=O)[O-])c1 (relative stereo),ED0,Zea mays,250 gAi/ha
same,ED80,Setaria faberi,250 gAi/ha
same,ED80,Amaranthus retroflexus,63 gAi/ha
same,ED80,Digitaria sanguinalis,125 gAi/ha
same,ED80,Abutilon theophrasti,16 gAi/ha
CCCCC1CC(=O)C(C(=O)c2ccc(Cl)cc2[N+](=O)[O-])C(=O)C1 (stereo not given),ED0,Zea mays,1000 gAi/ha
same,ED80,Amaranthus retroflexus,>2000 gAi/ha
same,ED80,Digitaria sanguinalis,>2000 gAi/ha
same,ED80,Abutilon theophrasti,500 gAi/ha
O=C1C[C@H]2C[C@H]2C(=O)C1C(=O)c1ccc(Cl)cc1[N+](=O)[O-] (relative stereo),ED0,Zea mays,16 gAi/ha
same,ED80,Setaria faberi,125 gAi/ha
same,ED80,Amaranthus retroflexus,63 gAi/ha
same,ED80,Digitaria sanguinalis,63 gAi/ha
same,ED80,Abutilon theophrasti,16 gAi/ha
CSCC1CC(=O)C(C(=O)c2ccc(Cl)cc2[N+](=O)[O-])C(=O)C1 (stereo not given),ED0,Zea mays,125 gAi/ha
same,ED80,Setaria faberi,125 gAi/ha
same,ED80,Amaranthus retroflexus,500 gAi/ha
same,ED80,Digitaria sanguinalis,250 gAi/ha
same,ED80,Abutilon theophrasti,63 gAi/ha
CC1(C)CC(=O)C(C(=O)c2ccc(Cl)cc2[N+](=O)[O-])C(=O)C1,ED0,Zea mays,500 gAi/ha
same,ED80,Amaranthus retroflexus,2000 gAi/ha
same,ED80,Digitaria sanguinalis,250 gAi/ha
same,ED80,Abutilon theophrasti,125 gAi/ha
O=C1C[C@H]2C[C@H]2C(=O)C1C(=O)c1ccc(C(F)(F)F)cc1[N+](=O)[O-] (relative stereo),ED0,Zea mays,31 gAi/ha
same,ED80,Setaria faberi,63 gAi/ha
same,ED80,Amaranthus retroflexus,63 gAi/ha
same,ED80,Digitaria sanguinalis,63 gAi/ha
same,ED80,Abutilon theophrasti,16 gAi/ha
O=C1CC2CCCCC2C(=O)C1C(=O)c1ccc(Cl)cc1[N+](=O)[O-] (stereo not given),ED0,Zea mays,500 gAi/ha
same,ED80,Setaria faberi,2000 gAi/ha
same,ED80,Amaranthus retroflexus,2000 gAi/ha
same,ED80,Digitaria sanguinalis,500 gAi/ha
same,ED80,Abutilon theophrasti,500 gAi/ha
O=C1CC2CCCC2C(=O)C1C(=O)c1ccc(Cl)cc1[N+](=O)[O-] (stereo not given),ED0,Zea mays,63 gAi/ha
same,ED80,Setaria faberi,500 gAi/ha
same,ED80,Amaranthus retroflexus,500 gAi/ha
same,ED80,Digitaria sanguinalis,250 gAi/ha
same,ED80,Abutilon theophrasti,500 gAi/ha
COc1ccc(C(=O)C2C(=O)C[C@H]3C[C@H]3C2=O)c([N+](=O)[O-])c1 (relative stereo),ED0,Zea mays,31 gAi/ha
same,ED80,Setaria faberi,125 gAi/ha
same,ED80,Amaranthus retroflexus,500 gAi/ha
same,ED80,Digitaria sanguinalis,125 gAi/ha
same,ED80,Abutilon theophrasti,125 gAi/ha
CS(=O)(=O)c1ccc(C(=O)C2C(=O)C[C@H]3C[C@H]3C2=O)c(Cl)c1 (relative stereo),ED0,Zea mays,125 gAi/ha
same,ED80,Setaria faberi,63 gAi/ha
same,ED80,Amaranthus retroflexus,31 gAi/ha
same,ED80,Digitaria sanguinalis,125 gAi/ha
same,ED80,Abutilon theophrasti,16 gAi/ha
Cc1cc(S(C)(=O)=O)ccc1C(=O)C1C(=O)C[C@H]2C[C@H]2C1=O (relative stereo),ED0,Zea mays,250 gAi/ha
same,ED80,Setaria faberi,250 gAi/ha
same,ED80,Amaranthus retroflexus,63 gAi/ha
same,ED80,Digitaria sanguinalis,250 gAi/ha
same,ED80,Abutilon theophrasti,16 gAi/ha
COCC1CC(=O)C(C(=O)c2ccc(Cl)cc2[N+](=O)[O-])C(=O)C1 (stereo not given),ED0,Zea mays,125 gAi/ha
same,ED80,Amaranthus retroflexus,125 gAi/ha
same,ED80,Digitaria sanguinalis,500 gAi/ha
same,ED80,Abutilon theophrasti,125 gAi/ha
CC1CCC(=O)C(C(=O)c2ccc(Cl)cc2[N+](=O)[O-])C1=O (stereo not given),ED0,Zea mays,125 gAi/ha
same,ED80,Amaranthus retroflexus,250 gAi/ha
same,ED80,Digitaria sanguinalis,63 gAi/ha
same,ED80,Abutilon theophrasti,63 gAi/ha
CS(=O)(=O)c1ccc(C(=O)C2C(=O)CCCC2=O)c(Cl)c1 [SULCOTRIONE],ED0,Zea mays,250 gAi/ha
same,ED80,Setaria faberi,250 gAi/ha
same,ED80,Amaranthus retroflexus,250 gAi/ha
same,ED80,Digitaria sanguinalis,125 gAi/ha
same,ED80,Abutilon theophrasti,16 gAi/ha
CC1CC(=O)C(C(=O)c2ccc(Cl)cc2[N+](=O)[O-])C(=O)C1C (stereo not given),ED0,Zea mays,125 gAi/ha
same,ED80,Setaria faberi,31 gAi/ha
same,ED80,Amaranthus retroflexus,500 gAi/ha
same,ED80,Digitaria sanguinalis,31 gAi/ha
same,ED80,Abutilon theophrasti,125 gAi/ha
CCCC1CC(=O)C(C(=O)c2ccc(Cl)cc2[N+](=O)[O-])C(=O)C1 (stereo not given),ED0,Zea mays,125 gAi/ha
same,ED80,Amaranthus retroflexus,2000 gAi/ha
same,ED80,Digitaria sanguinalis,500 gAi/ha
same,ED80,Abutilon theophrasti,>2000 gAi/ha
